From patent US11072634B2, “Inhibitors of transglutaminases” (Zedira GmbH, priority 2016, dated 2021) come the findings set out here.

*1 amine or outer side, *2 acyl side, *3 side chain or, on linkers, in order; H or OH if unused. Where a SMILES comes first, the peptide text is derived from it. [ ]: non-standard residue; d: D form. The star is where a group is joined. Nle(5,6-dioxo,6-NHMe) = CNC(=O)C(=O)CC[C@H](N)C(=O)O; X7 = O=C(CC[C@H](N[*:1])C(=O)[*:2])C(=O)NCc1ccccc1; X2 = CC(C)(C)NC(=O)C(=O)CC[C@H](N[*:1])C(=O)[*:2]; X4 = O=C(CC[C@H](N[*:1])C(=O)[*:2])C(=O)NC1CC1; Isonicotinoyl(3-COOH) = O=C(O)c1cnccc1C(=O)*; X6 = CCNC(=O)C(=O)CC[C@H](N[*:1])C(=O)[*:2]; X5 = NC(=O)C(=O)CC[C@H](N[*:1])C(=O)[*:2]; d(aIle) = CC[C@H](C)[C@@H](N)C(=O)O; Pro(4-oxo) = O=C1CN[C@H](C(=O)O)C1; Chg = N[C@H](C(=O)O)C1CCCCC1; Tle = CC(C)(C)[C@H](N)C(=O)O; Nle = CCCC[C@H](N)C(=O)O; X3 = Cc1nc(C(=O)*)cs1

Test [1] has as its target T1, recombinant human factor XIII A-subunit (rhFXIII-A, plasma transglutaminase) (Homo sapiens, UniProt P00488).
T1 construct: His6; purchased Zedira 1027 (so in the source); T027)
T1 sequence (P00488 39-732 limits assumed): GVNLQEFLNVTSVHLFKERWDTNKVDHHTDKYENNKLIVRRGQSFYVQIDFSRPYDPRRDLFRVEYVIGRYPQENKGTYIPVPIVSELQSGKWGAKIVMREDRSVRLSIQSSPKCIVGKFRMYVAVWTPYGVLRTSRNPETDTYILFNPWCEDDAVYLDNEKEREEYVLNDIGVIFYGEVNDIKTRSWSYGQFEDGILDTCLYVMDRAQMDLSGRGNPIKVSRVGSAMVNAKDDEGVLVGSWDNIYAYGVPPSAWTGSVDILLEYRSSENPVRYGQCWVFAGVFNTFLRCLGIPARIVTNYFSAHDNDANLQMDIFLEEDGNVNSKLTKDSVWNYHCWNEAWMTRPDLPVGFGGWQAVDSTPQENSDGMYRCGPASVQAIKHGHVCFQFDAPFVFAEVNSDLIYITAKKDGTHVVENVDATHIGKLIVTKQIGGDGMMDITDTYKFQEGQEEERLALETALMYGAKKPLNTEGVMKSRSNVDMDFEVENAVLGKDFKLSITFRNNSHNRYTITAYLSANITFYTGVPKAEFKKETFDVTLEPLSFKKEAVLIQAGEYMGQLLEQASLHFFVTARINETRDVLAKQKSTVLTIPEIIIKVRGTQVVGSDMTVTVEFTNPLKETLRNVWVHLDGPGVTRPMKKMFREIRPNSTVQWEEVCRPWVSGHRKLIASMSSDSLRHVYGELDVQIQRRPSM
The test can be described thus: Inhibition of rec. human coagulation factor XIII (fluorescence, Abz-NE(CAD-DNP)EQVSPLILLK-OH). Format: biochemical. Particulars: Table 3, FXIII inhibitors; read-out: IC50 FXIII. Here is the method:
Method for Inhibition Studies of Rec. Human Coagulation Factor XIII (Plasma Transglutaminase, rhFXIII-A)
(§1) 50 μg lyophilized His-tagged recombinant human factor XIII A-subunit (His6-rhFXIII, Zedira product 1027) is reconstituted in H2O (volume depends on original volume before lyophilization) resulting in a buffer containing 20 mM Tris-HCl, 150 mM NaCl, 1 mM EDTA, 1 mM DTT, 189 mg/ml maltodextrin, pH=7.5. The rhFXIII stock solution is diluted in buffer (50 mM Tris-HCl, 7.5 mM CaCl2, 150 mM NaCl, pH=7.4) to give a working solution of 59 U/ml (based on the amine-incorporation activity measured using transglutaminase activity assay #1036 (Zedira GmbH), described below).
(§2) A 10 mM inhibitor stock solution is prepared in DMSO, and from this a serial 1:2-fold dilution series is prepared also in DMSO. Each of the initial dilutions is subsequently diluted 1:50-fold with buffer (50 mM Tris-HCl, 7.5 mM CaCl2, 150 mM NaCl, pH=7.4) to yield the final working dilutions containing 2% (v/v) DMSO.
(§3) 15 μl of inhibitor working dilution are added per well of a 96 well microtiter plate. As control, 15 μl of a 2% (v/v) DMSO solution prepared using the buffer mentioned above are added per well.
(§4) 480 μl of His6-rhFXIII working solution and 120 μl human alpha thrombin (0.5 NIH units/μl) are added to 10.8 ml assay buffer (50 mM Tris-HCl, 7.5 mM CaCl2, 150 mM NaCl, 5 mM DTT, 13.4 mM glycine methylester, 50 μM Abz-NE(CAD-DNP)EQVSPLILLK-OH, (Zedira product A101; patent No.: EP 1781807B1), pH=7.4). From this master-mix solution, 285 μl are added per well containing the inhibitor. Increase in fluorescence is measured using […] and λem=418 nm at 37° C. for 35 min. A slope of the increase in fluorescence between 20 and 30 min is calculated for determination of the IC50 value (inhibitor concentration at which 50% of the initial FXIII activity is blocked).
(§5) Analysis of enzymatic activity is performed by calculation of the slope of an increase in fluorescence intensity. IC50 values are calculated by plotting the enzymatic activity (as percentage from control containing 2% DMSO instead of inhibitor) against the inhibitor concentration. IC50 is defined as the inhibitor concentration blocking 50%) of initial enzyme activity.

Test [2] deals with T2, TG2 (Homo sapiens, UniProt P21980).
T2 sequence (P21980 1-687): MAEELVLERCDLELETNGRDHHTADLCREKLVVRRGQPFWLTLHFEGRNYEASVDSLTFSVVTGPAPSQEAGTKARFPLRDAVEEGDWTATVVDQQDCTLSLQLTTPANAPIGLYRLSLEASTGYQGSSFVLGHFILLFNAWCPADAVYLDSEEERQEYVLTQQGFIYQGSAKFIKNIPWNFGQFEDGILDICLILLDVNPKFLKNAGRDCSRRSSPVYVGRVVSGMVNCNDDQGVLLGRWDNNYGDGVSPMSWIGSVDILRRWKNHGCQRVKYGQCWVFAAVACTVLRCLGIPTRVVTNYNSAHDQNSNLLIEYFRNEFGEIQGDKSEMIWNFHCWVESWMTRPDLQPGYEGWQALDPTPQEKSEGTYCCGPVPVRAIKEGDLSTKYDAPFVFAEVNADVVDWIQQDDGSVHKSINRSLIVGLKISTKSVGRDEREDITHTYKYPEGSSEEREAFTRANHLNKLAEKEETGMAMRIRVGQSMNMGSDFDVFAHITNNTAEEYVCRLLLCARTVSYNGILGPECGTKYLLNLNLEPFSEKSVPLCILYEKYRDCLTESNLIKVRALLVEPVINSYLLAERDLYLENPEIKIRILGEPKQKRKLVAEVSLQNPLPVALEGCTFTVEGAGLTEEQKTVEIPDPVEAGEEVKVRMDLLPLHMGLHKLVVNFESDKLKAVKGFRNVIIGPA
The test can be described thus: FXIII assay format using TG2 instead of FXIII (selectivity of FXIIIa blockers). Format: biochemical. Particulars: Table 3, selectivity with respect to TG2; read-out: IC50 TG2. Here is the method: as §1, §2, §3, §4
This assay was also used to determine selectivity of inhibitors preferentially blocking FXIIIa by using TG2 instead of FXIII.
as §5

What is called IC50 is the concentration that inhibits the measured activity by half. `CCNC(=O)C(=O)CC[C@H](NC(=O)c1ccncc1C(=O)O)C(=O)N[C@H](C(=O)N1CC(=O)C[C@H]1C(=O)N[C@H](C(=O)N[C@H](C(N)=O)C1CCCCC1)C1CCCCC1)C(C)(C)C` [Compound E26, 4-((S)-1-((S)-1-((S)-2-((S)-2-((S)-2-amino-1-cyclohexyl-2-oxoethylamino)-1-cyclohexyl-2-oxoethylcarbamoyl)-4-oxopyrrolidin-1-yl)-3,3-dimethyl-1-oxobutan-2-ylamino)-6-(ethylamino)-1,5,6-trioxohexan-2-ylcarbamoyl)nicotinic acid] ({Isonicotinoyl(3-COOH)}-[X6][Tle][Pro(4-oxo)][Chg][Chg]-NH2): the IC50 in test [1] came to 320 nM; in test [2], 10800 nM.

For `CC(C)(C)[C@H](NC(=O)[C@H](CCC(=O)C(=O)NCc1ccccc1)NC(=O)c1ccncc1C(=O)O)C(=O)N1CC(=O)C[C@H]1C(=O)N[C@H](C(=O)N[C@H](C(N)=O)C1CCCCC1)C1CCCCC1` [Compound E29, 4-((S)-1-((S)-1-((S)-2-((S)-2-((S)-2-amino-1-cyclohexyl-2-oxoethylamino)-1-cyclohexyl-2-oxoethylcarbamoyl)-4-oxopyrrolidin-1-yl)-3,3-dimethyl-1-oxobutan-2-ylamino)-6-(benzylamino)-1,5,6-trioxohexan-2-ylcarbamoyl)nicotinic acid] ({Isonicotinoyl(3-COOH)}-[X7][Tle][Pro(4-oxo)][Chg][Chg]-NH2), the results for the 50% inhibitory concentration (IC50) in test [1] and in test [2] were 850 nM and over 20000 nM, respectively.

For `CC(C)(C)NC(=O)C(=O)CC[C@H](NC(=O)c1ccncc1C(=O)O)C(=O)N[C@H](C(=O)N1CC(=O)C[C@H]1C(=O)N[C@H](C(=O)N[C@H](C(N)=O)C1CCCCC1)C1CCCCC1)C(C)(C)C` [Compound E30, 4-((S)-1-((S)-1-((S)-2-((S)-2-((S)-2-amino-1-cyclohexyl-2-oxoethylamino)-1-cyclohexyl-2-oxoethylcarbamoyl)-4-oxopyrrolidin-1-yl)-3,3-dimethyl-1-oxobutan-2-ylamino)-6-(tert-butylamino)-1,5,6-trioxohexan-2-ylcarbamoyl)nicotinic acid] ({Isonicotinoyl(3-COOH)}-[X2][Tle][Pro(4-oxo)][Chg][Chg]-NH2), the IC50 is 2900 nM in test [1] and over 20000 nM in test [2].

Consider `CC(C)(C)[C@H](NC(=O)[C@H](CCC(=O)C(N)=O)NC(=O)c1ccncc1C(=O)O)C(=O)N1CC(=O)C[C@H]1C(=O)N[C@H](C(=O)N[C@H](C(N)=O)C1CCCCC1)C1CCCCC1` [Compound E31, 4-((S)-6-amino-1-((S)-1-((S)-2-((S)-2-((S)-2-amino-1-cyclohexyl-2-oxoethylamino)-1-cyclohexyl-2-oxoethylcarbamoyl)-4-oxopyrrolidin-1-yl)-3,3-dimethyl-1-oxobutan-2-ylamino)-1,5,6-trioxohexan-2-ylcarbamoyl)nicotinic acid] ({Isonicotinoyl(3-COOH)}-[X5][Tle][Pro(4-oxo)][Chg][Chg]-NH2), for which the IC50 in test [1] was 5000 nM; in test [2] it was over 20000 nM.

As for `Cc1nc(C(=O)N[C@@H](CCC(=O)C(=O)NC2CC2)C(=O)N[C@H](C(=O)N2CC(=O)C[C@H]2C(=O)N[C@H](C(=O)N[C@H](C(N)=O)C2CCCCC2)C2CCCCC2)C(C)(C)C)cs1` [Compound E32, (S)—N1-((S)-1-((S)-2-((S)-2-((S)-2-amino-1-cyclohexyl-2-oxoethylamino)-1-cyclohexyl-2-oxoethylcarbamoyl)-4-oxopyrrolidin-1-yl)-3,3-dimethyl-1-oxobutan-2-yl)-N6-cyclopropyl-2-(2-methylthiazole-4-carboxamido)-5-oxohexanediamide] (X3-[X4][Tle][Pro(4-oxo)][Chg][Chg]-NH2), the IC50 in test [1] was found to be 2650 nM; in test [2], 1000 nM.

For `CC[C@H](C)[C@@H](NC(=O)[C@H](CC(C)C)NC(=O)[C@H](CCC(=O)C(=O)NC1CC1)NC(=O)c1csc(C)n1)C(=O)N[C@@H](CC(C)C)C(=O)N1CCC[C@H]1C(=O)N[C@@H](Cc1c[nH]c2ccccc12)C(=O)N1CCC[C@H]1C(N)=O` [Compound E33, (S)—N1-((S)-1-((2R,3S)-1-((S)-1-((S)-2-((S)-1-((S)-2-carbamoylpyrrolidin-1-yl)-3-(1H-indol-3-yl)-1-oxopropan-2-ylcarbamoyl)pyrrolidin-1-yl)-4-methyl-1-oxopentan-2-ylamino)-3-methyl-1-oxopentan-2-ylamino)-4-methyl-1-oxopentan-2-yl)-N6-cyclopropyl-2-(2-methylthiazole-4-carboxamido)-5-oxohexanediamide] (X3-[X4]L[d(aIle)]LPWP-NH2), the half-inhibitory concentration (IC50) turned out to be 16000 nM in test [1] and 11500 nM in test [2].

As for `CCCC[C@H](NC(=O)[C@H](CCC(=O)C(=O)NC)NC(=O)CNC(C)=O)C(=O)N[C@H](C(=O)N[C@@H](CC(C)C)C(=O)N1CCC[C@H]1C(=O)N[C@@H](Cc1c[nH]c2ccccc12)C(N)=O)[C@@H](C)CC` [Compound E34, (S)-2-(2-acetamidoacetamido)-N1-((S)-1-((2S,3S)-1-((S)-1-((S)-2-((S)-1-amino-3-(1H-indol-3-yl)-1-oxopropan-2-ylcarbamoyl)pyrrolidin-1-yl)-4-methyl-1-oxopentan-2-ylamino)-3-methyl-1-oxopentan-2-ylamino)-1-oxohexan-2-yl)-N6-methyl-5-oxohexanediamide] (Ac-G[Nle(5,6-dioxo,6-NHMe)][Nle]ILPW-NH2), the IC50 was determined as 2450 nM in test [1] and 200 nM in test [2].

Turning to `CCCC[C@H](NC(=O)[C@H](CCC(=O)C(=O)NC)NC(=O)CNC(=O)[C@@H]1CCCN1C(C)=O)C(=O)N[C@H](C(=O)N[C@@H](CC(C)C)C(=O)N1CCC[C@H]1C(=O)N[C@@H](Cc1c[nH]c2ccccc12)C(N)=O)[C@@H](C)CC` [Compound E35, (S)-2-(2-((S)-1-acetylpyrrolidine-2-carboxamido)acetamido)-N1-((S)-1-((2S,3S)-1-((S)-1-((S)-2-((S)-1-amino-3-(1H-indol-3-yl)-1-oxopropan-2-ylcarbamoyl)pyrrolidin-1-yl)-4-methyl-1-oxopentan-2-ylamino)-3-methyl-1-oxopentan-2-ylamino)-1-oxohexan-2-yl)-N6-methyl-5-oxohexanediamide] (Ac-PG[Nle(5,6-dioxo,6-NHMe)][Nle]ILPW-NH2), the IC50 amounted to 1950 nM in test [1] and 525 nM in test [2].
